What is called MIC is the smallest concentration in the dilution series that meets the test's criterion for growth inhibition. Read a high MIC as a less susceptible organism.

Each structure is given as a SMILES string. In brackets after ≈: the same amount, converted by molar mass.

What all share (assay type): functional
In one test the test system is Mycobacterium kansasii. Briefly: Antimycobacterial activity against Mycobacterium kansasii measured as susceptibility at 1 ug/mL.
For test [1], the system named is Mycobacterium tuberculosis. Briefly: Antimycobacterial activity against rifampicin and rifabutin sensitive Mycobacterium tuberculosis.
For test [2], the system named is Mycobacterium tuberculosis. Briefly: Antimycobacterial activity against Mycobacterium tuberculosis H37 Rv ATCC 27294.
The test system of another test is Mycobacterium avium. Briefly: Antimycobacterial activity against Mycobacterium avium-intracellulare complex measured as susceptibility at 1 ug/mL.

Turning to `C=CCN1[C@@H](c2ccccc2)C[C@@]2(C[C@H]1c1ccccc1)N=C1C(=C3NC(=O)/C(C)=C\C=C\[C@H](C)[C@H](O)[C@@H](C)[C@H](O)[C@H](C)[C@H](OC(C)=O)[C@H](C)[C@@H](OC)/C=C/O[C@@]4(C)Oc5c(C)c(O)c(c1c5C4=O)C3=O)N2`, the Activity in the test with Mycobacterium kansasii is listed as 100%; in the test with Mycobacterium avium it was “<=40%”. The MIC in test [1] and in test [2] was 0.02 µg/mL (≈ 0.0203 µM) each time.

`CO[C@H]1/C=C/O[C@@]2(C)Oc3c(C)c(O)c4c(O)c(c(/C=N/N5CCN(C)CC5)c(O)c4c3C2=O)NC(=O)/C(C)=C\C=C\[C@H](C)[C@H](O)[C@@H](C)[C@@H](O)[C@@H](C)[C@H](OC(C)=O)[C@@H]1C` [RIFAMPIN]: the Activity in the test with Mycobacterium kansasii is recorded as 100%; in the test with Mycobacterium avium, 0%. In addition, the MIC in test [1] and in test [2] was 0.02 µg/mL (≈ 0.0243 µM) in each case.

`CO[C@H]1/C=C/O[C@@]2(C)Oc3c(C)c(O)c4c(c3C2=O)C2=N[C@@]3(C[C@@H](c5ccccc5)N[C@@H](c5ccccc5)C3)NC2=C(NC(=O)/C(C)=C\C=C\[C@H](C)[C@H](O)[C@@H](C)[C@H](O)[C@H](C)[C@H](OC(C)=O)[C@@H]1C)C4=O`: the Activity in the test with Mycobacterium kansasii and in the test with Mycobacterium avium was 100% in each case. The MIC in test [1] and in test [2] was 0.02 µg/mL (≈ 0.0212 µM) each time.

In the case of `CCCCN1[C@@H](c2ccccc2)C[C@@]2(C[C@H]1c1ccccc1)N=C1C(=C3NC(=O)/C(C)=C\C=C\[C@H](C)[C@H](O)[C@@H](C)[C@H](O)[C@H](C)[C@H](OC(C)=O)[C@H](C)[C@@H](OC)/C=C/O[C@@]4(C)Oc5c(C)c(O)c(c1c5C4=O)C3=O)N2`, the Activity was determined as 100% in the test with Mycobacterium kansasii and 40% in the test with Mycobacterium avium. Moreover, the minimum inhibitory concentration (MIC) in test [1] and in test [2] was 0.02 µg/mL (≈ 0.02 µM) throughout.

For the compound `COc1ccc([C@@H]2C[C@]3(C[C@H](c4ccc(OC)cc4)N2)N=C2C(=C4NC(=O)/C(C)=C\C=C\[C@H](C)[C@H](O)[C@@H](C)[C@H](O)[C@H](C)[C@H](OC(C)=O)[C@H](C)[C@@H](OC)/C=C/O[C@@]5(C)Oc6c(C)c(O)c(c2c6C5=O)C4=O)N3)cc1`, the Activity is listed as 100% in the test on Mycobacterium kansasii and 60% with Mycobacterium avium. In addition, the MIC in test [1] and in test [2] was 0.02 µg/mL (≈ 0.0199 µM) throughout.

Regarding `CO[C@H]1/C=C/O[C@@]2(C)Oc3c(C)c(O)c4c(c3C2=O)C2=N[C@]3(C[C@@H](c5ccccc5)N[C@@H](c5ccccc5)C3)NC2=C(NC(=O)/C(C)=C\C=C\[C@H](C)[C@H](O)[C@@H](C)[C@H](O)[C@H](C)[C@H](OC(C)=O)[C@@H]1C)C4=O`, the Activity in the test on Mycobacterium kansasii and with Mycobacterium avium was 100% throughout. The MIC in test [1] and in test [2] was 0.02 µg/mL (≈ 0.0212 µM) throughout.

In the case of `C=CCCN1[C@@H](c2ccccc2)C[C@@]2(C[C@H]1c1ccccc1)N=C1C(=C3NC(=O)/C(C)=C\C=C\[C@H](C)[C@H](O)[C@@H](C)[C@H](O)[C@H](C)[C@H](OC(C)=O)[C@H](C)[C@@H](OC)/C=C/O[C@@]4(C)Oc5c(C)c(O)c(c1c5C4=O)C3=O)N2`, the values for the Activity with Mycobacterium kansasii and in the test with Mycobacterium avium were 100% and 80%, respectively. In addition, the MIC in test [1] and in test [2] was 0.02 µg/mL (≈ 0.0201 µM) each time.

Take `CO[C@H]1/C=C/O[C@@]2(C)Oc3c(C)c(O)c4c(c3C2=O)C2=N[C@@]3(C[C@@H](c5ccc(F)cc5)N[C@@H](c5ccc(F)cc5)C3)NC2=C(NC(=O)/C(C)=C\C=C\[C@H](C)[C@H](O)[C@@H](C)[C@H](O)[C@H](C)[C@H](OC(C)=O)[C@@H]1C)C4=O`: the Activity in the test on Mycobacterium kansasii and with Mycobacterium avium was 100% throughout. Further, the minimum inhibitory concentration (MIC) in test [1] and in test [2] was 0.02 µg/mL (≈ 0.0204 µM) throughout.

Take `CO[C@H]1/C=C/O[C@@]2(C)Oc3c(C)c(O)c4c(c3C2=O)C2=NC3(CCN(CC(C)C)CC3)NC2=C(NC(=O)/C(C)=C\C=C\[C@H](C)[C@H](O)[C@@H](C)[C@@H](O)[C@@H](C)[C@H](OC(C)=O)[C@@H]1C)C4=O` [RIFABUTIN]: the Activity with Mycobacterium kansasii was determined as 100%; with Mycobacterium avium it was 20%. For the same compound, the MIC in test [1] and in test [2] was 0.02 µg/mL (≈ 0.0236 µM) each time.
